Assay [1] relates to ILC2s. The following applies: recent report (Sui et al., 2018); cited from earlier work.
For assay [2], the system named is lung ILCs. The assay is described as follows: CellTrace Violet proliferation assay of sort-purified lung ILCs. The class given is cell-based, mouse. The following applies: 3 days. As to the method:
ILC in vitro culture. For in vitro experiments 5,000 ILCs/well were cultured in a 96 well round bottom plate with 20 ng/ml IL-7 (R&D Systems), 200 ng/ml IL-25 (R&D Systems) or 20 ng/ml, 2 ng/ml or 0.2 ng/ml IL-33 (BioLegend) with or without 1 μg/ml Neuromedin U (US Biological). In some cases purified CD90.2^+ lung cells were first labeled with CellTrace Violet (Thermo Fisher Scientific), then sorted as described above, and cultured for 3 days under the indicated conditions.
Proliferation assay. Lung cells were isolated and enriched for CD90.2 cells as described above, followed by labeling with CellTrace Violet (Cat #C34557; Thermo Fisher Scientific) according to manufacturer's instructions and subsequently stained with antibodies. After 3-day culture of sort-purified ILCs with 20 ng/ml IL-7 either alone or in combination with 200 ng/ml IL-33, 100 pM CGRP or 100 nM CGRP followed by staining, expression of CellTrace Violet in live (7AAD−) ILCs was analyzed on a BD LSRFortessa (BD Biosciences).

Assay [3] has as its system IL-33-induced airway inflammation. The assay is described as follows: IL-33-induced airway inflammation, intranasal co-administration of CGRP. The class given is in vivo, mouse. From the text: Mice and in vivo ILC activation. C57B1/6J mice were purchased from the Jackson Laboratory. Nmur1-LacZ reporter mice with a LacZ cassette knocked into the Nmur1 locus were rederived from Nmur1^tm1.1(KOMP)Vlcg sperm obtained from the trans-NIH Knock-Out Mouse Project (KOMP) Repository. NMU-deficient mice (NMU-KO) were rederived from B6.129S2-Nmu<tm1Mko> embryos from the RIKEN BioResource Center. For experiments with Nmur1-LacZ (Nmur1-KO) and NMU-KO mice, littermates that were either homozygous or heterozygous for the wild type allele were used as controls. Mice were housed under specific-pathogen-free conditions. For experiments, mice were matched for sex and age, and most mice were 6-10 weeks old. Where indicated, mice were anesthetized with Isoflurane and treated intranasally with the indicated stimuli (500 ng IL-25, 500 ng IL-33, or 20 μg Neuromedin U) daily for three consecutive days. The total administered volume was 20 μl for all conditions. Mice were randomly assigned to treatment groups after matching for sex and age. […] Mice were treated intranasally with 10 μg HDM on day 0, 7, 8, and 9, prior to sacrifice on day 10. All experiments were conducted in accordance with animal protocols approved by the Harvard Medical Area Standing Committee on Animals or BWH IACUC.
Lung analysis. Mice were sacrificed and perfused with cold PBS. Where indicated, after perfusion, broncho-alveolar lavage (BAL) was obtained by injecting 1.5 ml cold PBS into the lungs via a secured tracheal cannula. BALF was centrifuged, and the supernatant was used for analyzing cytokine levels and the cell pellet was resuspended, counted, and used for flow cytometry. Following BAL, lung lobes were dissected. The post-caval lobe was fixed in buffered formalin for histological analysis. Single cell suspensions of the remaining lung parenchymal tissue were prepared with the GentleMACS lung dissociation kit (Miltenyi Biotec) according to the manufacturer's instructions. Where indicated, cells were diluted in 10% Trypan Blue and viable cells counted using a hemocytometer.
Histology. Following paraffin embedding, sections of the formalin-fixed lung lobe were stained by H&E staining. Tissue sections were scored by a histopathologist in a blinded manner for severity of lung inflammation according to the following scoring system: 0=normal, 1=very mild, 2=mild, 3=moderate or 4=severe.
Methacholine challenge. Airway hyperresponsiveness was determined as previously described (Talbot, S. et al. Silencing Nociceptor Neurons Reduces Allergic Airway Inflammation. Neuron 87, 341-354, doi:10.1016/j.neuron.2015.06.007 (2015)) using a flexiVent rodent ventilator (SciReq).
Cytokine-induced airway inflammation. Mice received nasally 500 ng IL-25, 500 ng IL-33, 20 ug NMU or 6.65 ug CGRP diluted in DPBS for three consecutive days. For nasal administration, mice were lightly anesthetized with Isoflurane (Cat #07-893-1389; Patterson Veterinary). For induction of inflammatory ILC2s, mice received intraperitoneally 500 ng IL-25 for three consecutive days. One day after the last treatment, mice were euthanized and perfused with 8 ml cold PBS via the right heart ventricle. After exposure of the trachea, a small incision was made at the top of the trachea and a curved gavage needle was inserted. Lungs were washed with 1.5 ml cold PBS via the needle and the retrieved bronchoalveolar lavage fluid was centrifuged at 1300 rpm for 5 min at 4 C. After centrifugation, the supernatant was frozen at −20° C. and the cell pellet was resuspended in 250 ul complete medium and stored on ice until flow cytometric analysis. The post-caval lung lobe was transferred into 10% buffered formalin and stored at room temperature until paraffin embedding for histological analysis. […]

Where [4] appears, read: IL-33+CGRP vs IL-33 alone, intranasal, three consecutive days.

Entries after “also recorded” stand apart in the source; their conditions may differ.

The text below walks through data of US20210386829A1, “COMPOSITIONS AND METHODS FOR MODULATING CGRP SIGNALING TO REGULATE INNATE LYMPHOID CELL INFLAMMATORY RESPONSES” (The Broad Institute, Inc., priority 2018, published 2021).

Take “CGRP: neuropeptide calcitonin gene-related peptide (encoded by Calca), ligand of the Ramp1/Calcrl receptor; given at 100 nM in vitro, 6.65 ug nasally”: the “IL-5 and amphiregulin (Areg) production by ILC2s” value in assay [1] is “enhanced”. In assay [2] (IL-7+IL-33 in the presence of 100 nM CGRP), the “IL-33-activated ILCs that proliferated” value was “less than 10%”. Also, the “IL-33-induced proliferation of ILCs” value in assay [2] (IL-33 with 100 pM or 100 nM CGRP vs IL-33 alone) is “inhibits IL-33-induced proliferation in a dose-dependent manner; also recorded: strongly inhibited”. For the same substance, the “lung histology (H&E)” value in assay [3] (CGRP alone vs PBS-treated control mice) was “histologically identical”. Moreover, the “frequency or total number of lung-resident ILCs” value in assay [3] (CGRP alone vs PBS-treated mice) is reported as “did not alter”. In assay [3] (IL-33+CGRP vs IL-33 alone), the “IL-33-induced perivascular and peribronchial lymphocytic infiltrates in lung sections (H&E, blinded score)” value was “markedly inhibited”; the “airway hyperreactivity (airway resistance, methacholine challenge)” value is “less airway hyperreactivity”; the “frequency of IL-5- and IL-13-positive ILCs” value is “significantly reduced”; the “frequency of Ki67+ lung ILCs” value is “decreased frequencies”. Moreover, the “lung ILC frequencies and numbers” value in assay [3] (IL-33+CGRP vs IL-33 alone) was “significantly reduced”. In addition, in assay [3] (setting [4]), the “IL-5 and IL-13 protein in BALF (lung homogenates and BALF)” value is recorded as “lower; also recorded: reduced; also recorded: greatly diminished”; the “eosinophil frequency in lungs and BALF” value is listed as “significantly reduced; also recorded: significantly decreased”; the “eosinophil numbers in lung (lung and BALF)” value is recorded as “significantly reduced; also recorded: significantly decreased”. For the same substance, in assay [3] (IL-33+CGRP vs IL-33 alone, intranasal, three consecutive days, analysed one day later), the “Il5 and Il13 RNA expression in lung tissue (qPCR)” value is reported as “significantly reduced”.
